Measured values taken from US20040242537A1, “Acetylation method of chitosan” (priority 2001, published 2004).

Conditions: pH 7

chitosan
solubility according to pH: rapid decrease in solubility
